Laboratory results: patent publication EP4603105A1, “PHARMACEUTICAL COMPOSITION CONTAINING CYCLIC COMPOUND HAVING SELECTIVE KRAS INHIBITORY EFFECT AGAINST HRAS AND NRAS” (CHUGAI SEIYAKU KABUSHIKI KAISHA, priority 2022, dated 2024)
*1 amine or outer side, *2 acyl side, *3 side chain or, on linkers, in order; H or OH if unused. Where a SMILES comes first, the peptide text is derived from it. Bridges are numbered along the chain shown (N, C = ends). [ ]: non-standard residue; d: D form. The star is where a group is joined. X6 = CC(C)(C)CCN([C@@H](Cc1ccc(C(F)(F)F)cc1)C(=O)[*:2])[*:1]; hPhe(3-Cl-4-CF3) = N[C@@H](CCc1ccc(C(F)(F)F)c(Cl)c1)C(=O)O; NPrPhe(4-CF3) = CCCN[C@@H](Cc1ccc(C(F)(F)F)cc1)C(=O)O; X5 = Cc1ccc(C[C@@H](C(=O)[*:2])N(CCC(C)(C)C)[*:1])cc1; NEtPhe(4-CF3) = CCN[C@@H](Cc1ccc(C(F)(F)F)cc1)C(=O)O; 3Oxa8azabicyclo(3.2.1)octane = C1CC2COCC1N2*; NMeGly(cPent) = CN[C@H](C(=O)O)C1CCCC1; NMeF = CN[C@@H](Cc1ccccc1)C(=O)O; NMeD = CN[C@@H](CC(=O)O)C(=O)O; NMeL = CN[C@@H](CC(C)C)C(=O)O; Pip = O=C(O)[C@@H]1CCCCN1; Morpholide = C1CN(*)CCO1; NMeA = CN[C@@H](C)C(=O)O; Ac5c = NC1(C(=O)O)CCCC1; Aze = O=C(O)[C@@H]1CCN1; Ac3c = NC1(C(=O)O)CC1; Aib = CC(C)(N)C(=O)O; Sar = CNCC(=O)O

How the values were obtained:
[1] = tested on: human lung cancer strain NCI-H441; assay type: cell-based
How it was run: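 Readout: […] after the ATP-based reagent. Compound: serial dilutions in dimethyl sulfoxide.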

[2] = biological target: GDP-bound NRAS wild-type protein (Homo sapiens, UniProt P01111); test: Binding to NRAS by surface plasmon resonance (SPR), KD and KD ratio to KRAS; conditions: ratio of KD for GDP-bound NRAS wild-type protein to KD for KRAS
GDP-bound NRAS wild-type protein, sequence (P01111 whole entry): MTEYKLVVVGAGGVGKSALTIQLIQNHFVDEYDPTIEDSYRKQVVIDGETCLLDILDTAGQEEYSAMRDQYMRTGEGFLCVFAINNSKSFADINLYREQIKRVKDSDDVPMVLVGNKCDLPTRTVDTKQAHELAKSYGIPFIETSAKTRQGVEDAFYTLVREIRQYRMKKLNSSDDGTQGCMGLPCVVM
How it was run: (§1)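 Affinity is measured by surface plasmon resonance at 30°C against captured, GDP-loaded RAS carrying a biotinylated Avi tag. Compounds are titrated by single-cycle kinetics, and KD comes from a 1:1 fit.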

[3] = biological target: GDP-bound KRAS wild-type protein (Homo sapiens, UniProt P01116); test: Binding to KRAS by surface plasmon resonance (SPR), dissociation constant KD; conditions: 1:1 binding model
GDP-bound KRAS wild-type protein, sequence (P01116 1-188 isoform P01116-2): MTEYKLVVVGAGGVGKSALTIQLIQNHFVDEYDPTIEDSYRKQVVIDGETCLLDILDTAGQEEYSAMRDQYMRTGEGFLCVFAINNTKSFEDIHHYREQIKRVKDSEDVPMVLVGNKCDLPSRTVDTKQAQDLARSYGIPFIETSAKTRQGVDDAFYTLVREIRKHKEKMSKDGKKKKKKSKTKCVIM
Procedure: Surface plasmon resonance was used to analyze the binding affinity of compounds for KRAS, NRAS, and HRAS. The apparatus used was Biacore 8K, 8K+, or T200 (GE Healthcare), and the running buffer used was HBS (10 mM HEPES-NaOH, 150 mM NaCl, pH 7.4) containing 1 mM DTT, 10 mM MgCl2, 0.01% Tween 20, 10 µM GDP, and 4% DMSO.
Biotinylated Avi-tag fusion KRAS, NRAS, and HRAS proteins were expressed in E. coli BL21 (DE3) strains, and after cells were homogenized, they were purified using Streptavidin Mutein Matrix and Superdex 75. After purification, GDP-loaded KRAS, NRAS, and HRAS proteins were immobilized on the surface of Sensor Chip CAP (Cytiva) coated with Biotin CAPture Reagent in an immobilization amount of about 100 to 300 RU. Binding of each compound was evaluated by the Single Cycle Kinetics method, and a running buffer or a compound solution was added to the RAS protein non-immobilized surface and the immobilized surface to obtain a binding response. The flow rate was set to 100 µL/min, and in the compound-adding cycle, compound solutions having different concentrations were intermittently added for 75 seconds each, starting from a low concentration. […] In the blank cycle, a running buffer was intermittently added and not the compound solution. The Biotin CAPture Reagent and RAS proteins were immobilized for each cycle, and at the end of each cycle, the sensor chip was regenerated by the regeneration solution appended to the Biotin CAPture Kit (Cytiva). Measurement was carried out at 30°C.
The resulting sensorgram was subjected to curve fitting based on a 1:1 binding model on Biacore Insight Evaluation Software or T200 Evaluation Software, and thereby the dissociation constant KD of each compound with respect to KRAS, NRAS, and HRAS was determined. […] Blank indicates a compound from which the KD value with respect to NRAS or HRAS was not obtained.

[4] = biological target: HRAS wild-type protein (Homo sapiens, UniProt P01112); test: Binding to HRAS by surface plasmon resonance (SPR), KD and KD ratio to KRAS; conditions: ratio of KD for HRAS wild-type protein to KD for KRAS
HRAS wild-type protein, sequence (P01112 whole entry): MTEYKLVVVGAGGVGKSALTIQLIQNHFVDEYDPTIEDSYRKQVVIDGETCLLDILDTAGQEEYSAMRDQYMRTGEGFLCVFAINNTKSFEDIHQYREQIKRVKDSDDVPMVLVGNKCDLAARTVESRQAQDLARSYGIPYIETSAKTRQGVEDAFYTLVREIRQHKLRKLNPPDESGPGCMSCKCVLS
How it was run: as §1

## CCCN1C(=O)[C@@H]2CCN2C(=O)[C@@H]2CCCCN2C(=O)[C@H]([C@@H](C)CC)NC(=O)[C@H](CC(C)C)N(C)C(=O)C[C@@H](C(=O)N2CCOCC2)N(C)C(=O)[C@H](C2CCCC2)N(C)C(=O)C2(CCCC2)NC(=O)[C@@H]2CCCN2C(=O)[C@H](CCc2ccc(C(F)(F)F)c(Cl)c2)NC(=O)CN(C)C(=O)[C@@H]1Cc1ccc(C(F)(F)F)cc1 [PP0077] ([NMeL]I[Pip][Aze][NPrPhe(4-CF3)][Sar][hPhe(3-Cl-4-CF3)]P[Ac5c][NMeGly(cPent)][NMeD]-Morpholide; lactam N-11)
[1]
  IC50: 5.3 nM
[2]
  NRAS /KRAS: C (A compound having a KD ratio of 0.1 or more and less than 3 is denoted as C)
[3]
  Kd: 0.2 nM
[4]
  HRAS /KRAS: B (a compound having 3 or more and less than 10 is denoted as B)

## CC[C@H](C)[C@@H]1NC(=O)[C@H](CC(C)C)N(C)C(=O)C[C@@H](C(=O)N2CCOCC2)N(C)C(=O)[C@H](C2CCCC2)N(C)C(=O)C2(CCCC2)NC(=O)[C@@H]2CCCN2C(=O)[C@H](CCc2ccc(C(F)(F)F)c(Cl)c2)NC(=O)CN(C)C(=O)[C@H](Cc2ccc(C)cc2)N(CCC(C)(C)C)C(=O)[C@@H]2CCN2C(=O)[C@H](C)N(C)C1=O [PP0087] ([NMeL]I[NMeA][Aze][X5][Sar][hPhe(3-Cl-4-CF3)]P[Ac5c][NMeGly(cPent)][NMeD]-Morpholide; lactam N-11)
[1]
  IC50: 24 nM
[2]
  NRAS /KRAS: C (A compound having a KD ratio of 0.1 or more and less than 3 is denoted as C)
[3]
  Kd: 0.75 nM
[4]
  HRAS /KRAS: C (A compound having a KD ratio of 0.1 or more and less than 3 is denoted as C)

## CC[C@H](C)[C@@H]1NC(=O)[C@H](CC(C)C)N(C)C(=O)C[C@@H](C(=O)N2CCOCC2)N(C)C(=O)[C@H](C2CCCC2)N(C)C(=O)C2(CCCC2)NC(=O)[C@@H]2CCCN2C(=O)[C@H](CCc2ccc(C(F)(F)F)c(Cl)c2)NC(=O)CN(C)C(=O)[C@H](Cc2ccc(C(F)(F)F)cc2)N(CCC(C)(C)C)C(=O)[C@@H]2CCN2C(=O)[C@H](C)N(C)C1=O [PP0113] ([NMeL]I[NMeA][Aze][X6][Sar][hPhe(3-Cl-4-CF3)]P[Ac5c][NMeGly(cPent)][NMeD]-Morpholide; lactam N-11)
[1]
  IC50: 7.1 nM
[2]
  NRAS /KRAS: C (A compound having a KD ratio of 0.1 or more and less than 3 is denoted as C)
[3]
  Kd: 0.75 nM
[4]
  HRAS /KRAS: B (a compound having 3 or more and less than 10 is denoted as B)

## CC[C@H](C)[C@@H]1NC(=O)[C@H](CC(C)C)N(C)C(=O)C[C@@H](C(=O)N2CCOCC2)N(C)C(=O)[C@H](C2CCCC2)N(C)C(=O)C2(CCCC2)NC(=O)[C@@H]2CCCN2C(=O)[C@H](CCc2ccc(C(F)(F)F)c(Cl)c2)NC(=O)CN(C)C(=O)[C@H](Cc2ccc(C(F)(F)F)cc2)N(CCC(C)(C)C)C(=O)CN(C)C(=O)CN(C)C1=O [PP0127] ([NMeL]I[Sar][Sar][X6][Sar][hPhe(3-Cl-4-CF3)]P[Ac5c][NMeGly(cPent)][NMeD]-Morpholide; lactam N-11)
[1]
  IC50: 25.3 nM
[2]
  NRAS /KRAS: C (A compound having a KD ratio of 0.1 or more and less than 3 is denoted as C)
[3]
  Kd: 0.92 nM
[4]
  HRAS /KRAS: C (A compound having a KD ratio of 0.1 or more and less than 3 is denoted as C)

## CCCN1C(=O)CN(C)C(=O)[C@@H]2CCN2C(=O)[C@H]([C@@H](C)CC)NC(=O)[C@H](CC(C)C)N(C)C(=O)C[C@@H](C(=O)N2CCOCC2)N(C)C(=O)[C@H](C2CCCC2)N(C)C(=O)C2(CCCC2)NC(=O)[C@@H]2CCCN2C(=O)[C@H](CCc2ccc(C(F)(F)F)c(Cl)c2)NC(=O)CN(C)C(=O)[C@@H]1Cc1ccc(C(F)(F)F)cc1 [PP0158] ([NMeL]I[Aze][Sar][NPrPhe(4-CF3)][Sar][hPhe(3-Cl-4-CF3)]P[Ac5c][NMeGly(cPent)][NMeD]-Morpholide; lactam N-11)
[1]
  IC50: 15.4 nM
[2]
  NRAS /KRAS: A (a compound having 10 or more and less than 20 is denoted as A)
[3]
  Kd: 0.85 nM
[4]
  HRAS /KRAS: B (a compound having 3 or more and less than 10 is denoted as B)

## CCCN1C(=O)[C@@H]2CCN2C(=O)[C@@H]2CCN2C(=O)[C@H]([C@@H](C)CC)NC(=O)[C@H](CC(C)C)N(C)C(=O)C[C@@H](C(=O)N2CCOCC2)N(C)C(=O)[C@H](C2CCCC2)N(C)C(=O)C2(CCCC2)NC(=O)[C@@H]2CCCN2C(=O)[C@H](CCc2ccc(C(F)(F)F)c(Cl)c2)NC(=O)CN(C)C(=O)[C@@H]1Cc1ccc(C(F)(F)F)cc1 [PP0168] ([NMeL]I[Aze][Aze][NPrPhe(4-CF3)][Sar][hPhe(3-Cl-4-CF3)]P[Ac5c][NMeGly(cPent)][NMeD]-Morpholide; lactam N-11)
[1]
  IC50: 26.6 nM
[2]
  NRAS /KRAS: C (A compound having a KD ratio of 0.1 or more and less than 3 is denoted as C)
[3]
  Kd: 0.67 nM
[4]
  HRAS /KRAS: B (a compound having 3 or more and less than 10 is denoted as B)

## CCCN1C(=O)[C@@H]2CCN2C(=O)[C@H](C)N(C)C(=O)[C@H]([C@@H](C)CC)NC(=O)[C@H](CC(C)C)N(C)C(=O)C[C@@H](C(=O)N2C3CCC2COC3)N(C)C(=O)[C@H](C2CCCC2)N(C)C(=O)C2(CCCC2)NC(=O)[C@@H]2CCCN2C(=O)[C@H](CCc2ccc(C(F)(F)F)c(Cl)c2)NC(=O)CN(C)C(=O)[C@@H]1Cc1ccc(C(F)(F)F)cc1 [PP0182] ([NMeL]I[NMeA][Aze][NPrPhe(4-CF3)][Sar][hPhe(3-Cl-4-CF3)]P[Ac5c][NMeGly(cPent)][NMeD]-{3Oxa8azabicyclo(3.2.1)octane}; lactam N-11)
[1]
  IC50: 6.2 nM
[2]
  NRAS /KRAS: C (A compound having a KD ratio of 0.1 or more and less than 3 is denoted as C)
[3]
  Kd: 0.88 nM
[4]
  HRAS /KRAS: B (a compound having 3 or more and less than 10 is denoted as B)

## CCCN1C(=O)[C@@H]2CCN2C(=O)[C@H](Cc2ccccc2)N(C)C(=O)[C@H]([C@@H](C)CC)NC(=O)[C@H](CC(C)C)N(C)C(=O)C[C@@H](C(=O)N2CCOCC2)N(C)C(=O)[C@H](C2CCCC2)N(C)C(=O)C2(CCCC2)NC(=O)[C@@H]2CCCN2C(=O)[C@H](CCc2ccc(C(F)(F)F)c(Cl)c2)NC(=O)CN(C)C(=O)[C@@H]1Cc1ccc(C(F)(F)F)cc1 [PP0209] ([NMeL]I[NMeF][Aze][NPrPhe(4-CF3)][Sar][hPhe(3-Cl-4-CF3)]P[Ac5c][NMeGly(cPent)][NMeD]-Morpholide; lactam N-11)
[1]
  IC50: 569 nM
[2]
  NRAS /KRAS: C (A compound having a KD ratio of 0.1 or more and less than 3 is denoted as C)
[3]
  Kd: 110 nM
[4]
  HRAS /KRAS: C (A compound having a KD ratio of 0.1 or more and less than 3 is denoted as C)

## CC[C@H](C)[C@@H]1NC(=O)[C@H](CC(C)C)N(C)C(=O)C[C@@H](C(=O)N2CCOCC2)N(C)C(=O)[C@H](C2CCCC2)N(C)C(=O)C2(CC2)NC(=O)[C@@H]2CCCN2C(=O)[C@H](CCc2ccc(C(F)(F)F)c(Cl)c2)NC(=O)CN(C)C(=O)[C@H](Cc2ccc(C(F)(F)F)cc2)N(CC)C(=O)CN(C)C(=O)CN(C)C1=O [PP0234] ([NMeL]I[Sar][Sar][NEtPhe(4-CF3)][Sar][hPhe(3-Cl-4-CF3)]P[Ac3c][NMeGly(cPent)][NMeD]-Morpholide; lactam N-11)
[1]
  IC50: 49.9 nM
[2]
  NRAS /KRAS: B (a compound having 3 or more and less than 10 is denoted as B)
[3]
  Kd: 0.49 nM
[4]
  HRAS /KRAS: C (A compound having a KD ratio of 0.1 or more and less than 3 is denoted as C)

## CC[C@H](C)[C@@H]1NC(=O)[C@H](CC(C)C)N(C)C(=O)C[C@@H](C(=O)N2CCOCC2)N(C)C(=O)[C@H](C2CCCC2)N(C)C(=O)C(C)(C)NC(=O)[C@@H]2CCCN2C(=O)[C@H](CCc2ccc(C(F)(F)F)c(Cl)c2)NC(=O)CN(C)C(=O)[C@H](Cc2ccc(C(F)(F)F)cc2)N(CC)C(=O)CN(C)C(=O)CN(C)C1=O [PP0235] ([NMeL]I[Sar][Sar][NEtPhe(4-CF3)][Sar][hPhe(3-Cl-4-CF3)]P[Aib][NMeGly(cPent)][NMeD]-Morpholide; lactam N-11)
[1]
  IC50: 4.5 nM
[2]
  NRAS /KRAS: B (a compound having 3 or more and less than 10 is denoted as B)
[3]
  Kd: 0.15 nM
[4]
  HRAS /KRAS: C (A compound having a KD ratio of 0.1 or more and less than 3 is denoted as C)
